Measured values from publication PMC9425435, “Antiviral Profiling of C-18- or C-19-Functionalized Semisynthetic Abietane Diterpenoids” (Journal of Natural Products, 2022).

What was measured:
ZIKV strain (COL345Si) = experiment: Post-infection stage evaluation assay (plaque), ZIKV COL345Si
[1] = test system: Colombian Zika virus strains; experiment: Anti-Zika EC50 summarised over Colombian strains (abstract); assay type: cell-based; settings: read-out: EC50 against Colombian Zika virus strains
BHK-21 cells = experiment: Cytotoxicity CC100 in BHK-21 cells (6 days)
[2] = test system: DENV-2 (Dengue virus type 2); experiment: Plaque reduction assay (PFU), DENV-2 in BHK21; assay type: cell-based; settings: DENV-2, BHK21, PFU/well 150 ± 25
[3] = test system: endemic chikungunya virus of Colombian origin; experiment: Post-infection stage evaluation assay (plaque), CHIKV
[4] = test system: CHIKV (Chikungunya virus); experiment: End-point titration technique (EPTT), viral titer reduction factor, CHIKV in Vero E6; assay type: cell-based; settings: Vero E6, 10TCID50, EPTT
ZIKV/Col [5] = experiment: Quantification of infectious viral particles by plaque assay, ZIKV/Col post-treatment; assay type: cell-based, Zika virus; settings: for percentage of infection (infectious viral particles, plaque assay): ZIKV/Col, Vero cells, post-treated, vs untreated control 100%
DENV-2 = settings: postinfection stages; cited from earlier work
ZIKV (Zika virus) = experiment: Plaque reduction assay (PFU), ZIKV in Vero E6; assay type: cell-based
Vero-E6 cells = experiment: Cytotoxicity CC100 in Vero-E6 cells (72 h); settings: Vero-E6 cells, 72h
ZIKV/Col [6] = experiment: Intracellular quantification of viral protein by cell-ELISA, ZIKV/Col; assay type: cell-based, Zika virus; settings: all concentrations evaluated (3.1-25.0 μg/mL)
[7] = MTT cytotoxicity assay (CC50); settings: chlorocebus sabaeus
Zika_459148 virus strain = experiment: Post-infection stage evaluation assay (plaque), Zika_459148
ZIKV/Col [8] = experiment: Quantification of intracellular viral genome by qRT-PCR, ZIKV/Col; assay type: cell-based, Zika virus
[9] = test system: herpes virus type 2 (HHV-2); settings: cited from earlier work

CC(C)c1cc2c(cc1O)[C@@]1(C)CCC[C@@](C)(CN3C(=O)c4ccccc4C3=O)[C@@H]1CC2 [Compound 6, 18-(phthalimid-2-yl)ferruginol]
SI (CC50/EC50) (ZIKV strain (COL345Si); ZIKV COL345Si, 6 days): 15
EC50 (ZIKV strain (COL345Si); Zika virus, 144 h, read-out: EC50 ZIKV strain COL345Si): 5.3 ± 2.9 µM
EC50 [1]: 5 to 10 µM
CC100 (100% cytotoxic concentration) (BHK-21 cells): >50 µg/mL
% inhibition (PFU) [2]: 91 ± 7%
SI (CC50/EC50) ([3]; CHIKV): 19.6
EC50 ([3]; Chikungunya virus, read-out: EC50 chikungunya virus): 9.8 µM
Rf (reduction factor of the viral titer) [4]: 10^2
percentage of infection (infectious viral particles, plaque assay) (ZIKV/Col [5]; 3.1 μg/mL): 62.7%
percentage of infection (infectious viral particles, plaque assay) (ZIKV/Col [5]; 6.2 μg/mL): 31.3%
percentage of infection (infectious viral particles, plaque assay) (ZIKV/Col [5]; 12.5 μg/mL): 20.9%
percentage of infection (infectious viral particles, plaque assay) (ZIKV/Col [5]; 25.0 μg/mL): 7.0%
EC50 (ZIKV/Col [5]; Zika virus, read-out: EC50 ZIKV/Col): 9.9 µM
EC50 (DENV-2): 1.4 µM
Nontoxic concentration that showed a higher viral reduction factor, in μM (ZIKV (Zika virus); ZIKV PFU assay, conversion of 3.1 μg/mL): ca. 7.2 μM
% inhibition (PFU) (ZIKV (Zika virus); ZIKV, Vero E6, PFU/well 150 ± 25): 52 ± 13%
CC100 (100% cytotoxic concentration) (Vero-E6 cells): >50 µg/mL
viral protein production, percentages of infection (ZIKV/Col [6]): below 50%
CC50 at 72 h [7]: 192 µM
CC50 at 144 h [7]: 80.8 µM
EC50 (Zika_459148 virus strain; Zika virus, Vero C1008, 72 h, read-out: EC50 anti-Zika_459148 virus): 6.3 ± 2.7 µM
SI (CC50/EC50) (Zika_459148 virus strain; Zika_459148, 72 h): 30
number of genome copies/mL, percentage of untreated control (ZIKV/Col [8]; 3.1 μg/mL): 125.9%
replication of viral genome (ZIKV/Col [8]; cultures treated with 6.2, 12.5, and 25.0 μg/mL): significantly inhibited
EC50 [9]: 19.2 µM
